{"source": "patent US8492582B2", "about": "“N-acyl anthranilic acid derivative or salt thereof” (Toyama Chemical Co., Ltd., priority 2009, dated 2013)", "note": "Structures can show the parent of a compound that is named as a salt.", "data": [{"tested_on": "type I collagen α1 chain mRNA in WI-38 cells", "assay": "Type I collagen α1 chain mRNA expression inhibition test", "type": "cell-based", "details": "Homo sapiens, WI-38, 24 h, read-out: Inhibition rate (%) at 10 μmol/L", "experimental": "(§1) Human embryonic lung fibroblast cell line WI-38 cells were suspended in a Dulbecco's modified Eagle's medium containing 10% fetal calf serum, and 7.5×10^4 cells were inoculated on a 12-well plate and cultured for 3 days, or 1.5×10^5 cells were inoculated and cultured for 2 days. After the growth of the cells to a subconfluent state, the culture medium was changed to a Dulbecco's modified Eagle's medium containing 0.4% fetal calf serum and 50 μg/mL ascorbic acid, and the cells were further cultured for 24 hours. Then, a test compound was added thereto, and, one hour later, TGF-β1 was added at a final concentration of 1 ng/mL. Twenty-four hours after the addition, the total RNA was extracted from the cells using an RNA extraction kit (SV Total RNA Isolation System, Promega), and cDNA was synthesized using a reverse transcriptase (ReverTra Ace, TOYOBO). The expression level of the type I collagen al chain mRNA was analyzed with a real-time PCR instrument (ABI PRISM 7700 Sequence Detection System, Applied Biosystems) by a real-time PCR method using a premix reagent of real-time PCR (SYBR Premix Ex Taq or SYBR Premix Ex Taq II (Perfect Real Time), TaKaRa). A PCR reaction was conducted with diluted cDNA as a template, using primers specific for a type I collagen α1 chain gene or a GAPDH gene as an internal standard, and the reaction product was measured. The PCR reaction was conducted by incubation at 95° C. for 10 seconds and 45 cycles of denaturation at 95° C. for 5 seconds and annealing/extension at 60° C. for 30 seconds. The expression level of the type I collagen α1 chain mRNA was corrected with GAPDH and was expressed as a relative value when the expression level obtained in the absence of the test compound was defined as 100%.", "units": {"inhibition at 10 µM": "%"}, "values": [{"smiles": "O=C(Nc1cc(-c2ccco2)ccc1C(=O)O)c1cc(-c2cccnc2)ccc1O", "note": "[Example 44a, sodium 4-(furan-2-yl)-2-(2-hydroxy-5-(pyridin-3-yl)benzamido)benzoate]", "inhibition at 10 µM": 89}, {"smiles": "O=C(Nc1cc(-c2ccoc2)ccc1C(=O)O)c1cc(-c2cccnc2)ccc1O", "note": "[Example 46a, sodium 4-(furan-3-yl)-2-(2-hydroxy-5-(pyridin-3-yl)benzamido)benzoate]", "inhibition at 10 µM": 91}, {"smiles": "O=C(Nc1cc(-c2ccccc2)ccc1C(=O)O)c1cc(-c2ccncc2)ccc1O", "note": "[Example 19a, sodium 2-(2-hydroxy-5-(pyridin-4-yl)benzamido)-4-phenylbenzoate]", "inhibition at 10 µM": 83}, {"smiles": "O=C(Nc1cc(-c2ccccc2)ccc1C(=O)O)c1ccc(-c2cccnc2)cc1O", "note": "[Example 13a, sodium 2-(2-hydroxy-4-(pyridin-3-yl)benzamido)-4-phenylbenzoate]", "inhibition at 10 µM": 93}, {"smiles": "CN(CCN1CCCC1)c1ccc(O)c(C(=O)Nc2cc(-c3ccccc3)ccc2C(=O)O)c1", "note": "[Example 95a, sodium 2-(2-hydroxy-5-(methyl(2-(pyrrolidin-1-yl)ethyl)amino)benzamido)-4-phenylbenzoate]", "inhibition at 10 µM": 88}, {"smiles": "CN(C)CCN(C)c1ccc(C(=O)Nc2cc(-c3ccccc3)ccc2C(=O)O)c(O)c1", "note": "[Example 97a, sodium 2-(4-((2-(dimethylamino)ethyl)(methyl)amino)-2-hydroxybenzamido)-4-phenylbenzoate]", "inhibition at 10 µM": 83}, {"smiles": "O=C(Nc1cc(-c2ccsc2)ccc1C(=O)O)c1cncc(-c2ccccc2)c1", "note": "[46b, sodium 2-(5-phenylpyridine-3-carboxamido)-4-(thiophen-3-yl)benzoate]", "inhibition at 10 µM": 69}]}, {"tested_on": "type I collagen α1 chain mRNA in WI-38 cells", "assay": "Type I collagen α1 chain mRNA expression inhibition test", "type": "cell-based", "details": "Homo sapiens; 10 μmol/L test compound; WI-38 cells, TGF-β1 1 ng/mL, 24 hours; Table 4a; read-out: Inhibition rate (%) at 10 μmol/L", "experimental": "as §1", "units": {"inhibition at 10 µM": "%"}, "values": [{"smiles": "CCN(CC)CCN(C)c1ccc(O)c(C(=O)Nc2cc(-c3ccccc3)ccc2C(=O)O)c1", "note": "[Example 102a, 2-(5-((2-(Diethylamino)ethyl)(methyl)amino)-2-hydroxybenzamido)-4-phenylbenzoic acid]", "inhibition at 10 µM": 89}, {"smiles": "Cc1cccc(C(=O)Nc2cc(-c3ccccc3)ccc2C(=O)O)c1O", "note": "[Example 41a, 2-(2-hydroxy-3-methylbenzamido)-4-phenylbenzoic acid]", "inhibition at 10 µM": 99}, {"smiles": "O=C(Nc1cc(-c2cccc(F)c2)ccc1C(=O)O)c1cc(N2CCOCC2)ccc1O", "note": "[198a, 4-(3-Fluorophenyl)-2-(2-hydroxy-5-(morpholin-4-yl)benzamido)benzoic acid]", "inhibition at 10 µM": 81}, {"smiles": "O=C(Nc1cc(-c2ccccc2)ccc1C(=O)O)c1cc(-c2ccco2)ccc1O", "note": "[Example 68a, 2-(5-(furan-2-yl)-2-hydroxybenzamido)-4-phenylbenzoic acid]", "inhibition at 10 µM": 98}, {"smiles": "O=C(Nc1cc(-c2ccccc2)ccc1C(=O)O)c1cc(-n2ccnc2)ccc1O", "note": "[Example 34a, 2-(2-Hydroxy-5-(1H-imidazol-1-yl)benzamido)-4-phenylbenzoic acid hydrochloride]", "inhibition at 10 µM": 82}, {"smiles": "CN1CCC(c2ccc(O)c(C(=O)Nc3cc(-c4ccccc4)ccc3C(=O)O)c2)CC1", "note": "[Example 50a, 2-(2-hydroxy-5-(1-methylpiperidin-4-yl)benzamido)-4-phenylbenzoic acid]", "inhibition at 10 µM": 75}, {"smiles": "COc1ccc(C(=O)Nc2cc(-c3ccccc3)ccc2C(=O)O)c(O)c1", "note": "[Example 6a, 2-(2-Hydroxy-4-methoxybenzamido)-4-phenylbenzoic acid]", "inhibition at 10 µM": 95}, {"smiles": "COc1ccccc1-c1ccc(C(=O)O)c(NC(=O)c2cc(-c3ccccn3)ccc2O)c1", "note": "[Example 35a, 2-(2-Hydroxy-5-(pyridin-2-yl)benzamido)-4-(2-methoxyphenyl)benzoic acid hydrochloride]", "inhibition at 10 µM": 90}, {"smiles": "Cc1cccc(-c2ccc(C(=O)O)c(NC(=O)c3cc(N4CCCCC4)ccc3O)c2)c1", "note": "[Example 149a, 2-(2-Hydroxy-5-(piperidin-1-yl)benzamido)-4-(3-methylphenyl)benzoic acid]", "inhibition at 10 µM": 97}, {"smiles": "O=C(Nc1cc(-c2ccccc2)ccc1C(=O)O)c1cc(C2CCN(CCO)CC2)ccc1O", "note": "[225a, 2-(2-hydroxy-5-(1-(2-hydroxyethyl)piperidin-4-yl)benzamido)-4-phenylbenzoic acid]", "inhibition at 10 µM": 86}, {"smiles": "COc1ccccc1-c1ccc(C(=O)O)c(NC(=O)c2cc(-c3cccnc3)ccc2O)c1", "note": "[Example 37a, 2-(2-hydroxy-5-(pyridin-3-yl)benzamido)-4-(2-methoxyphenyl)benzoic acid]", "inhibition at 10 µM": 94}, {"smiles": "COc1ccc(O)c(C(=O)Nc2cc(-c3ccccc3)ccc2C(=O)O)c1", "note": "[Example 7a, 2-(2-Hydroxy-5-methoxybenzamido)-4-phenylbenzoic acid]", "inhibition at 10 µM": 94}, {"smiles": "CN1CCN(c2ccc(O)c(C(=O)Nc3cc(-c4ccccc4)ccc3C(=O)O)c2)CC1", "note": "[Example 92a, 2-(2-hydroxy-5-(4-methylpiperazin-1-yl)benzamido)-4-phenylbenzoic acid dimethanesulfonate]", "inhibition at 10 µM": 84}, {"smiles": "CCN(CCN(C)C)c1ccc(O)c(C(=O)Nc2cc(-c3ccccc3)ccc2C(=O)O)c1", "note": "[Example 104a, 2-(5-((2-(Dimethylamino)ethyl)(ethyl)amino)-2-hydroxybenzamido)-4-phenylbenzoic acid]", "inhibition at 10 µM": 92}, {"smiles": "O=C(Nc1cc(-c2ccccc2)ccc1C(=O)O)c1cc(OCCN2CCNCC2)ccc1O", "note": "[Example 144a, 2-(2-hydroxy-5-(2-(piperazin-1-yl)ethoxy)benzamido)-4-phenylbenzoic acid dimethanesulfonate]", "inhibition at 10 µM": 96}, {"smiles": "CCN1CCC(c2ccc(O)c(C(=O)Nc3cc(-c4ccccc4)ccc3C(=O)O)c2)CC1", "note": "[222a, 2-(5-(1-ethylpiperidin-4-yl)-2-hydroxybenzamido)-4-phenylbenzoic acid]", "inhibition at 10 µM": 85}, {"smiles": "O=C(Nc1cc(-c2ccccc2)ccc1C(=O)O)c1cc(-c2ncccn2)ccc1O", "note": "[Example 29a, 2-(2-hydroxy-5-(pyrimidin-2-yl)benzamido)-4-phenylbenzoic acid]", "inhibition at 10 µM": 90}, {"smiles": "O=C(Nc1cc(-c2ccccc2)ccc1C(=O)O)c1cc(N2CCC2)ccc1O", "note": "[Example 86a, 2-(5-(Azetidin-1-yl)-2-hydroxybenzamido)-4-phenylbenzoic acid hydrochloride]", "inhibition at 10 µM": 85}, {"smiles": "O=C(Nc1cc(-c2ccco2)ccc1C(=O)O)c1cc(N2CCCCC2)ccc1O", "note": "[Example 65a, 4-(furan-2-yl)-2-(2-hydroxy-5-(piperidin-1-yl)benzamido)benzoic acid methanesulfonate]", "inhibition at 10 µM": 71}, {"smiles": "CN(C)CCOc1ccc(O)c(C(=O)Nc2cc(-c3ccccc3)ccc2C(=O)O)c1", "note": "[Example 109a, 2-(5-(2-(Dimethylamino)ethoxy)-2-hydroxybenzamido)-4-phenylbenzoic acid hydrochloride]", "inhibition at 10 µM": 91}, {"smiles": "O=C(Nc1cc(-c2ccccc2)ccc1C(=O)O)c1cc(N2CCSCC2)ccc1O", "note": "[Example 89a, 2-(2-hydroxy-5-(thiomorpholin-4-yl)benzamido)-4-phenylbenzoic acid]", "inhibition at 10 µM": 98}, {"smiles": "O=C(Nc1cc(-c2ccccc2)ccc1C(=O)O)c1cc(OCCN2CCC(CCO)CC2)ccc1O", "note": "[180a, 2-(2-Hydroxy-5-(2-(4-(hydroxyethyl)piperidin-1-yl)ethoxy)benzamido)-4-phenylbenzoic acid hydrochloride]", "inhibition at 10 µM": 85}]}, {"tested_on": "type I collagen α1 chain mRNA in WI-38 cells", "assay": "Type I collagen α1 chain mRNA expression inhibition test", "type": "cell-based", "details": "Homo sapiens; 10 μmol/L test compound; WI-38 cells, TGF-β1 1 ng/mL, 24 hours; Table 4b; read-out: Inhibition rate (%) at 10 μmol/L", "experimental": "as §1", "units": {"inhibition at 10 µM": "%"}, "values": [{"smiles": "Cn1cccc1-c1ccc(C(=O)O)c(NC(=O)c2cncc(-c3ccccc3)c2)c1", "note": "[45b, 4-(1-methyl-1H-pyrrol-2-yl)-2-(5-phenylpyridine-3-carboxamido)benzoic acid]", "inhibition at 10 µM": 90}, {"smiles": "CCOc1ccccc1-c1ccc(C(=O)O)c(NC(=O)c2cncc(-c3ccccc3)c2)c1", "note": "[38b, Sodium 4-(2-ethoxyphenyl)-2-(5-phenylpyridine-3-carboxamido)benzoate]", "inhibition at 10 µM": 94}, {"smiles": "CNc1ccccc1-c1ccc(C(=O)O)c(NC(=O)c2cncc(-c3ccccc3)c2)c1", "note": "[12b, 4-(2-(Methylamino)phenyl)-2-(5-phenylpyridine-3-carboxamido)benzoic acid]", "inhibition at 10 µM": 87}, {"smiles": "O=C(Nc1cc(-c2ccccc2OC(F)(F)F)ccc1C(=O)O)c1cncc(-c2ccccc2)c1", "note": "[40b, Sodium 2-(5-phenylpyridine-3-carboxamido)-4-(2-(trifluoromethoxy)phenyl)benzoate]", "inhibition at 10 µM": 96}, {"smiles": "Cc1ccccc1-c1ccc(C(=O)O)c(NC(=O)c2cncc(-c3ccccc3)c2)c1", "note": "[32b, Sodium 4-(2-methylphenyl)-2-(5-phenylpyridine-3-carboxamido)benzoate]", "inhibition at 10 µM": 81}, {"smiles": "O=C(Nc1cc(-c2ccccc2)ccc1C(=O)O)c1ccnc(-c2ccccc2)c1", "note": "[4b, 4-Phenyl-2-(2-phenylpyridine-4-carboxamido)benzoic acid]", "inhibition at 10 µM": 93}, {"smiles": "COc1cccc(-c2ccc(C(=O)O)c(NC(=O)c3cncc(-c4ccccc4)c3)c2)c1", "note": "[35b, Sodium 4-(3-methoxyphenyl)-2-(5-phenylpyridine-3-carboxamido)benzoate]", "inhibition at 10 µM": 96}]}]}
